Like-named read-outs stand apart in the source and are kept apart here.
What was measured:
Type in all cases: cell-based
[1] = target: proteins of HEK293T cells transiently overexpressing caspase-6 (Homo sapiens, UniProt Q8IWS0); conditions: exp_ref Probe; protein PHF6 (Q8IWS0); analysis C6
[2] = target: proteins of HEK293T cells transiently overexpressing caspase-6 (Homo sapiens, UniProt Q9NTK5); conditions: protein OLA1 (Q9NTK5), analysis C6
[3] = target: proteins of HEK293T cells transiently overexpressing caspase-6 (Homo sapiens, UniProt P38646); conditions: protein HSPA9 (P38646)
[4] = target: proteins of HEK293T cells transiently overexpressing caspase-6 (Homo sapiens, UniProt Q13200); conditions: protein PSMD2 (Q13200)
[5] = target: proteins of HEK293T cells transiently overexpressing caspase-6 (Homo sapiens, UniProt P25205); conditions: exp_ref Probe; protein MCM3 (P25205); analysis C6
[6] = target: proteins of HEK293T cells transiently overexpressing caspase-6 (Homo sapiens, UniProt O14880); conditions: exp_ref Probe; protein MGST3 (O14880); analysis C6
[7] = target: T1, proteins of HEK293T cells transiently overexpressing caspase-6 (Homo sapiens, UniProt P55212); conditions: for enrich.exp.med: exp_ref Probe
T1 sequence (P55212 24-293): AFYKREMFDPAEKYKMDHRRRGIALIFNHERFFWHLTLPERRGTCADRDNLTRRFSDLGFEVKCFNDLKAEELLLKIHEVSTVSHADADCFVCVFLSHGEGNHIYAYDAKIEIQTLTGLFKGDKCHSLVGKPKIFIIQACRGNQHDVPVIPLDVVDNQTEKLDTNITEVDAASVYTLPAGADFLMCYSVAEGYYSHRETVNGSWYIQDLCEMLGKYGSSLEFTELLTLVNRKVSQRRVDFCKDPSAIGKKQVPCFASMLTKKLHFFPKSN

[8] = target: proteins of HEK293T cells transiently overexpressing caspase-6 (Homo sapiens, UniProt P31946); conditions: exp_ref Probe; protein YWHAB (P31946); analysis C6
[9] = target: proteins of HEK293T cells transiently overexpressing caspase-6 (Homo sapiens, UniProt Q8TCD1); conditions: protein C18orf32 (Q8TCD1)
[10] = target: proteins of HEK293T cells transiently overexpressing caspase-6 (Homo sapiens, UniProt Q9Y490); conditions: exp_ref Probe; protein TLN1 (Q9Y490); analysis C6
[11] = target: proteins of HEK293T cells transiently overexpressing caspase-6 (Homo sapiens, UniProt O94919); conditions: exp_ref Probe; protein ENDOD1 (O94919); analysis C6
[12] = target: proteins of HEK293T cells transiently overexpressing caspase-6 (Homo sapiens, UniProt Q16576); conditions: exp_ref Probe; protein RBBP7 (Q16576); analysis C6
[13] = target: proteins of HEK293T cells transiently overexpressing caspase-6 (Homo sapiens, UniProt P13010); conditions: protein XRCC5 (P13010)
[14] = target: T2, proteins of HEK293T cells transiently overexpressing caspase-6 (Homo sapiens, UniProt P09622)
T2 sequence (P09622 36-509): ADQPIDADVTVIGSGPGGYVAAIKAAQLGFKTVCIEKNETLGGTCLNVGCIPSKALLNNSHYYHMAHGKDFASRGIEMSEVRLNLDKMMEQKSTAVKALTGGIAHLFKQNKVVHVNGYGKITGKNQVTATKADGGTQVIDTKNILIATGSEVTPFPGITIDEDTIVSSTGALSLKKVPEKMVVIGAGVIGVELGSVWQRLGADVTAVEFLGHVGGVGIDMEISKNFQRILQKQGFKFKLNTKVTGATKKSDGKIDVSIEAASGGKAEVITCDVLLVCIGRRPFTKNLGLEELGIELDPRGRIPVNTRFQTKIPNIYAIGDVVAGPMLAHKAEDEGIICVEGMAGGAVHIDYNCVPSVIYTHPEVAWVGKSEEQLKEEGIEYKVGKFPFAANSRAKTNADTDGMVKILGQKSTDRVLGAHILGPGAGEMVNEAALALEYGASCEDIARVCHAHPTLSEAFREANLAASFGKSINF

[15] = target: proteins of HEK293T cells transiently overexpressing caspase-6 (Homo sapiens, UniProt P21796); conditions: Probe; protein VDAC1 P21796
[16] = target: proteins of HEK293T cells transiently overexpressing caspase-6 (Homo sapiens, UniProt P62241); conditions: exp_ref Probe; protein RPS8 (P62241); analysis C6
[17] = target: proteins of HEK293T cells transiently overexpressing caspase-6 (Homo sapiens, UniProt P26640); conditions: Probe; protein VARS P26640
[18] = target: proteins of HEK293T cells transiently overexpressing caspase-6 (Homo sapiens, UniProt P23528); conditions: protein CFL1 (P23528)
[19] = protein CASP6SMALL (P55212), Expt Probe, analysis C6

Sequence of proteins of HEK293T cells transiently overexpressing caspase-6 (Homo sapiens, UniProt Q13200) (Q13200 whole entry): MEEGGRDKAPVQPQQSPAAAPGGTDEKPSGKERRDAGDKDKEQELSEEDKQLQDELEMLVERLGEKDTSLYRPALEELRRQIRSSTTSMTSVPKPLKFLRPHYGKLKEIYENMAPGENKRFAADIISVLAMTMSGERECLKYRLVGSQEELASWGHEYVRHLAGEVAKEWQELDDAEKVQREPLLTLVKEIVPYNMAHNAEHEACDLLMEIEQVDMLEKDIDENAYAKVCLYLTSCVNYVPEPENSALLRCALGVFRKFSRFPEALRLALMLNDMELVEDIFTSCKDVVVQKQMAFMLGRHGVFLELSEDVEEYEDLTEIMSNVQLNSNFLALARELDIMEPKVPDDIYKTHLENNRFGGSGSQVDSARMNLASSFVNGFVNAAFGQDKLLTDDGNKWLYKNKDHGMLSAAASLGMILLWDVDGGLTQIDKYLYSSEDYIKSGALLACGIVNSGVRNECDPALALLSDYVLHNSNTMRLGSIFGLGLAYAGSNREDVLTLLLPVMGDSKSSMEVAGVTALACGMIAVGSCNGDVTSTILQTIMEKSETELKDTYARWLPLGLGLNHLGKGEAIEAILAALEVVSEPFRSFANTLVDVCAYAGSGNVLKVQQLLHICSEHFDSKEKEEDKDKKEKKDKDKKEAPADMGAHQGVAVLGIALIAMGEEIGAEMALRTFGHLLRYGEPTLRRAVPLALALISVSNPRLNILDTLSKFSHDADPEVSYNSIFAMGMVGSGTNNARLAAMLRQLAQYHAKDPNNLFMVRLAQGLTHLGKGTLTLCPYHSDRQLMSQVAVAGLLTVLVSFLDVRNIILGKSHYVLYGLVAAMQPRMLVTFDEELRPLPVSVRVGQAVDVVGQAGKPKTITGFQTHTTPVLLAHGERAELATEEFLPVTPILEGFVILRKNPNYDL
Sequence of proteins of HEK293T cells transiently overexpressing caspase-6 (Homo sapiens, UniProt P38646) (P38646 47-679): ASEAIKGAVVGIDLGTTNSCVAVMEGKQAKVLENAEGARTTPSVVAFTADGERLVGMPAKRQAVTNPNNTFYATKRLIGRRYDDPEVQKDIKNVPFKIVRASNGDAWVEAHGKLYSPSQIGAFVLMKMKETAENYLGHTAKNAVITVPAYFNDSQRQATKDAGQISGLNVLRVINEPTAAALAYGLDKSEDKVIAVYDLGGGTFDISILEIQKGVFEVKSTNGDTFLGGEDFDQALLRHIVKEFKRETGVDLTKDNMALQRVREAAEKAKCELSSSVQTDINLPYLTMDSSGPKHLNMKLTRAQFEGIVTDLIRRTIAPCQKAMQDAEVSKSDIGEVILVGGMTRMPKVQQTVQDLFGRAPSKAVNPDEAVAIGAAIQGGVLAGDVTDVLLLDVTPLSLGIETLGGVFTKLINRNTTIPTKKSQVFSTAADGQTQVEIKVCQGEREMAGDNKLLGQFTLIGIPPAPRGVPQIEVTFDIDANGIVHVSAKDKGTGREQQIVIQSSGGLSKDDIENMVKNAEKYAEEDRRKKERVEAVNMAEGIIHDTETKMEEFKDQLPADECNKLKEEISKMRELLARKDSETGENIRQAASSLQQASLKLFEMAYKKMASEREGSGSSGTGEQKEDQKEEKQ
Sequence of proteins of HEK293T cells transiently overexpressing caspase-6 (Homo sapiens, UniProt Q8TCD1) (Q8TCD1 whole entry): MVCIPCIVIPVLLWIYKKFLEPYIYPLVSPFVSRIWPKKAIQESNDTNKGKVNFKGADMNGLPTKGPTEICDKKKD
Sequence of proteins of HEK293T cells transiently overexpressing caspase-6 (Homo sapiens, UniProt P23528) (P23528 whole entry): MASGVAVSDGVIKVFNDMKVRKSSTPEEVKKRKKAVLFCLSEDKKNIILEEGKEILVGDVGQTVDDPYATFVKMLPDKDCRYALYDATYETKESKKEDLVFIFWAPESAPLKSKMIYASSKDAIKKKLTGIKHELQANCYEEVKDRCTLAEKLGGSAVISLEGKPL
Sequence of proteins of HEK293T cells transiently overexpressing caspase-6 (Homo sapiens, UniProt P13010) (P13010 whole entry): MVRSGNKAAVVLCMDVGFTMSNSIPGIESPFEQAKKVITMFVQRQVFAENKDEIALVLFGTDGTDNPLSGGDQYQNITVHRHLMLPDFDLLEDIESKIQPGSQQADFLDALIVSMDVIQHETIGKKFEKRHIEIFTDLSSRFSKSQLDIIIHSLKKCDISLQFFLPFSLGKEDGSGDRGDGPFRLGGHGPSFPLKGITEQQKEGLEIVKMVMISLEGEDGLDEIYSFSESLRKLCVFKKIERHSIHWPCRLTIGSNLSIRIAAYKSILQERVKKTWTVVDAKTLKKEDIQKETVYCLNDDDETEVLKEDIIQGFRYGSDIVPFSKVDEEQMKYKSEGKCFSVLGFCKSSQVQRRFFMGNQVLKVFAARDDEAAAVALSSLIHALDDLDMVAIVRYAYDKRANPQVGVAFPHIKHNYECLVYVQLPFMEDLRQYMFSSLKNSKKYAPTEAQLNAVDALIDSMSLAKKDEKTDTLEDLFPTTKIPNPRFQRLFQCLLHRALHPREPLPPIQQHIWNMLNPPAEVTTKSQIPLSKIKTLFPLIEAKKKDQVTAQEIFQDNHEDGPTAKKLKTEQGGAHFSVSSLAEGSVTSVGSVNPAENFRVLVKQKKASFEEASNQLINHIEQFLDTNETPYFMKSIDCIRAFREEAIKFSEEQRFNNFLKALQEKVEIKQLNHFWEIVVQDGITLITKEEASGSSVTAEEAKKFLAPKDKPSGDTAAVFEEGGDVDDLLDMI
Sequence of proteins of HEK293T cells transiently overexpressing caspase-6 (Homo sapiens, UniProt P31946) (P31946 whole entry): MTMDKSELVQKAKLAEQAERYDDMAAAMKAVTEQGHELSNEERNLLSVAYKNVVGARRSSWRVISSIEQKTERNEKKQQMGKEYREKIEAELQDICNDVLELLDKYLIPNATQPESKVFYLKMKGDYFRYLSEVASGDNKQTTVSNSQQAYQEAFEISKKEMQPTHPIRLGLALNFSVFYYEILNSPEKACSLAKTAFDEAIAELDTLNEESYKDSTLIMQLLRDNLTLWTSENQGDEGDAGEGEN
Sequence of proteins of HEK293T cells transiently overexpressing caspase-6 (Homo sapiens, UniProt O14880) (O14880 whole entry): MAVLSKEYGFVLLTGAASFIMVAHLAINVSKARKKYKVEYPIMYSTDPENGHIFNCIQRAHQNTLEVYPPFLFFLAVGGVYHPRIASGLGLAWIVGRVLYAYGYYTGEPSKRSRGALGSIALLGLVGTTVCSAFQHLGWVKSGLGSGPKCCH
Sequence of proteins of HEK293T cells transiently overexpressing caspase-6 (Homo sapiens, UniProt P21796) (P21796 whole entry): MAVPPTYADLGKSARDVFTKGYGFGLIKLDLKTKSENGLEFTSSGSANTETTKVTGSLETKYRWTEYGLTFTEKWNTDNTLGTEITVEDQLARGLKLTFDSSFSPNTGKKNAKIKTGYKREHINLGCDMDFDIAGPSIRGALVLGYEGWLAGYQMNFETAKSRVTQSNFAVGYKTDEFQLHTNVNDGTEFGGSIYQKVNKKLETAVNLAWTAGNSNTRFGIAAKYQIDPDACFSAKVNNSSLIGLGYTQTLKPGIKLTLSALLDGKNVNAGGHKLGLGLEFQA
Sequence of proteins of HEK293T cells transiently overexpressing caspase-6 (Homo sapiens, UniProt Q16576) (Q16576 whole entry): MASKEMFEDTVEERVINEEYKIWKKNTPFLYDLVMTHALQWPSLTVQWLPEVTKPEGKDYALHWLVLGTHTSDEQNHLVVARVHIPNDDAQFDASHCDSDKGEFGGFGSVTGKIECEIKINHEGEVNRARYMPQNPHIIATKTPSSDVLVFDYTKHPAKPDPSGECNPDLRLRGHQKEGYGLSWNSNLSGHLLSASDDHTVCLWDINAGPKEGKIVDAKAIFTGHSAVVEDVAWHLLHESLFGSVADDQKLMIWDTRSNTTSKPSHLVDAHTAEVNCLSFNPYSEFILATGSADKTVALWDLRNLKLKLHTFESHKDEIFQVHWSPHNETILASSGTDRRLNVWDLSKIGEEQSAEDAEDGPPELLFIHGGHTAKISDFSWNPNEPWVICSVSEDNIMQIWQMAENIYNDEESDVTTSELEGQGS
Sequence of proteins of HEK293T cells transiently overexpressing caspase-6 (Homo sapiens, UniProt P26640) (P26640 whole entry): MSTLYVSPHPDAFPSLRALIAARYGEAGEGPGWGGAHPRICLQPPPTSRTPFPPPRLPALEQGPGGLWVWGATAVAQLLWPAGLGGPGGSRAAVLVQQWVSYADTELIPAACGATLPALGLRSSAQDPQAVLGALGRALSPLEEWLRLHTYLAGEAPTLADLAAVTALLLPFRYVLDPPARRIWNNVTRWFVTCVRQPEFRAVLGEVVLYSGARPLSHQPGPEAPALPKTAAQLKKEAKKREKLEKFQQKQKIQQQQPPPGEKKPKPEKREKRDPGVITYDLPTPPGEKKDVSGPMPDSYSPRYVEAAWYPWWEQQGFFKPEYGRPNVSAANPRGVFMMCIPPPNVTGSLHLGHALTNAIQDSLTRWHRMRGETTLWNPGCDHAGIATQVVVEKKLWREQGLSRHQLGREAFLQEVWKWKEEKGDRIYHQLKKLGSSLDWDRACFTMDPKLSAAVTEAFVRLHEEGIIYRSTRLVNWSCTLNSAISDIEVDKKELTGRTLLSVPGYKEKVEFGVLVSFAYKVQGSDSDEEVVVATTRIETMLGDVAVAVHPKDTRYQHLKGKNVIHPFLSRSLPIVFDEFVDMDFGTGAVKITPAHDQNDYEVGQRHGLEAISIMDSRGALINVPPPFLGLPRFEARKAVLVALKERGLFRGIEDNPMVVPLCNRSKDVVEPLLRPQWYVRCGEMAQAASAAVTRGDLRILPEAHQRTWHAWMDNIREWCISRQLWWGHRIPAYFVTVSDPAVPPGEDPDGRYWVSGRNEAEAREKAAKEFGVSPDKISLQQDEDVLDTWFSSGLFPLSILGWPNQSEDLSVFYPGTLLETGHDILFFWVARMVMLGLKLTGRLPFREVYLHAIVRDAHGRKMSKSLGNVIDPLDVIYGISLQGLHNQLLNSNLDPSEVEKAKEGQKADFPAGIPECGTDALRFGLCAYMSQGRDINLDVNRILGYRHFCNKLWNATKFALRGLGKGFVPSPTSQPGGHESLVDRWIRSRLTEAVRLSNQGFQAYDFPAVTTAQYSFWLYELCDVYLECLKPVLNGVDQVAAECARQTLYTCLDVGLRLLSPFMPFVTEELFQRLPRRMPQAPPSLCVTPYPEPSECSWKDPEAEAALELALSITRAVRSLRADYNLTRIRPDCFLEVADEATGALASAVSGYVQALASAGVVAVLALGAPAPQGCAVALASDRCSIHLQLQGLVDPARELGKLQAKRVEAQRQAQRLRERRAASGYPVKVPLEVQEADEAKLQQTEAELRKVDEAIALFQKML

`C#CCOc1ccc([C@@H]2C[C@@H](C(=O)Nc3ccc(OC(F)(F)F)cc3)CN(S(=O)(=O)C=C)C2)cc1` (relative stereo) [13-t] was tested, and the enrich.exp.med [1] was 1.065, the enrich.exp.med.lin ([2]; Expt Probe) was 6.528 and the enrich.exp.med.log2 ([2]; Expt Probe) was 2.707. For the same molecule, the enrich.exp.med ([2]; exp_ref Probe) was 2.707, the enrich.exp.med ([3]; exp_ref Probe, analysis C6) was 0.7965 and the enrich.exp.med.lin [3] was 1.737. For the same molecule, the enrich.exp.med.log2 [3] was 0.7965, the enrich.exp.med ([4]; exp_ref Probe, analysis C6) was 1.027 and the enrich.exp.med.lin [4] was 2.037. For the same molecule, the enrich.exp.med.log2 [4] was 1.027, the enrich.exp.med [5] was 0.2109 and the enrich.exp.med [6] was 1.143. For the same molecule, the enrich.exp.med ([7]; protein CASP6LARGE (P55212), analysis C6) was 0.6468, the enrich.exp.med.lin ([7]; protein CASP6LARGE (P55212)) was 1.566 and the enrich.exp.med.log2 ([7]; protein CASP6LARGE (P55212)) was 0.6468. It also gave an enrich.exp.med.lin ([7]; protein CASP6SMALL (P55212)) of 9.435, an enrich.exp.med.log2 ([7]; protein CASP6SMALL (P55212)) of 3.238 and an enrich.exp.med.lin [7, 19] of 9.435. For the same molecule, the enrich.exp.med.log2 [7, 19] was 3.238, the enrich.exp.med ([7]; protein CASP6SMALL (P55212), analysis C6) was 3.238 and the enrich.exp.med [8] was -0.2081. For the same molecule, the enrich.exp.med.lin [9] was 5.403, the enrich.exp.med.log2 [9] was 2.434 and the enrich.exp.med.lin ([9]; Expt Probe, analysis C6) was 5.403. It also gave an enrich.exp.med.log2 ([9]; Expt Probe, analysis C6) of 2.434, an enrich.exp.med ([9]; exp_ref Probe, analysis C6) of 2.434 and an enrich.exp.med [10] of 0.6042. The enrich.exp.med [11] was -0.1243, the enrich.exp.med [12] was 0.6141 and the enrich.exp.med ([13]; exp_ref Probe, analysis C6) was 0.8127. The enrich.exp.med.lin [13] was 1.757, the enrich.exp.med.log2 [13] was 0.8127 and the enrich.exp.med ([14]; Probe, protein DLD P09622) was -1.39. The enrich.exp.med.lin ([14]; protein DLD (P09622)) was 0.3817, the enrich.exp.med.log2 ([14]; protein DLD (P09622)) was -1.39 and the enrich.exp.med [15] was -1.18. It also gave an enrich.exp.med [16] of 0.3889, an enrich.exp.med [17] of -1.705 and an enrich.exp.med ([18]; exp_ref Probe, analysis C6) of 0.4078. The enrich.exp.med.lin [18] was 1.327 and the enrich.exp.med.log2 [18] was 0.4078.

Source: paper PMC10176470, “Engaging a Non-catalytic Cysteine Residue Drives Potent and Selective Inhibition of Caspase-6” (Journal of the American Chemical Society, 2023)
